Results reported in the kinase profiling compilation of Christmann-Franck et al. (2016).

Assays:
Experiment in all cases: KINOMEscan competition binding
Settings in all cases: compound 10.0 µM
ACVR2A (human) = ACVR2A (human) (UniProt P27037)
AURKA (human) = AURKA (human) (UniProt O14965)
AURKC (human) = AURKC (human) (UniProt Q9UQB9)
BRSK1 (human) = BRSK1 (human) (UniProt Q8TDC3)
CDK8 (human) = CDK8 (human) (UniProt P49336)
CDKL3 (human) = CDKL3 (human) (UniProt Q8IVW4)
CDKL5 (human) = CDKL5 (human) (UniProt O76039)
CaMK1 (human) = CaMK1 (human) (UniProt Q14012)
DAPK3 (human) = DAPK3 (human) (UniProt O43293)
Chain of DAPK3 (human) (O43293 whole entry, looked up): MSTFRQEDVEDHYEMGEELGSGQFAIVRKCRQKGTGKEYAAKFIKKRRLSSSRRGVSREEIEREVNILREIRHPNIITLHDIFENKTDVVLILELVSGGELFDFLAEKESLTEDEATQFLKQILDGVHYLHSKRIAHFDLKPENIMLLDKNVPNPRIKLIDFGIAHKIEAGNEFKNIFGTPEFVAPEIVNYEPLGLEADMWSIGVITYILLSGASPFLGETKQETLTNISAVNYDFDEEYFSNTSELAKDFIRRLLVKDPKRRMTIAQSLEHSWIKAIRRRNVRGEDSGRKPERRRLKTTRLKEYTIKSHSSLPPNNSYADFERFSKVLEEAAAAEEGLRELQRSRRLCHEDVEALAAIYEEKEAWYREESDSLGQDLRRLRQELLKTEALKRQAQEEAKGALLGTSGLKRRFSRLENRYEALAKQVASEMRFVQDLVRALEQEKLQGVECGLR

DCLK1 (human) = DCLK1 (human) (UniProt O15075)
EIF2AK2 (human) = EIF2AK2 (human) (UniProt P19525)
Chain of EIF2AK2 (human) (P19525 whole entry, looked up): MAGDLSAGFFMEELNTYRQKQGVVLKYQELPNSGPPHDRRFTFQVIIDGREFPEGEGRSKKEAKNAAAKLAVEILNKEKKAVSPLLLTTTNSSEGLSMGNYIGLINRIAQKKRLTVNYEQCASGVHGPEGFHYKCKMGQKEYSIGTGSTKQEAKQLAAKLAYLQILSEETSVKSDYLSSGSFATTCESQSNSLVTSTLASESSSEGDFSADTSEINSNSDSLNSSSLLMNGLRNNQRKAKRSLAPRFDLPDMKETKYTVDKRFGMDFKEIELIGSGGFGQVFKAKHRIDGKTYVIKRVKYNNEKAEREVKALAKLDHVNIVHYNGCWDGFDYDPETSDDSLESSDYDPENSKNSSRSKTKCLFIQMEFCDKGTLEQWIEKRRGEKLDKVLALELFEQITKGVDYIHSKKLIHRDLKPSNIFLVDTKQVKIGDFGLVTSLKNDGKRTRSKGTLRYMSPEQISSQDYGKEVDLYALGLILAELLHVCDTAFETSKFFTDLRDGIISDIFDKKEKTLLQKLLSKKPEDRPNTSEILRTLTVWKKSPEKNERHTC

EPHA4 (human) = EPHA4 (human) (UniProt P54764)
EPHA5 (human) = EPHA5 (human) (UniProt P54756)
[1] = test system: FGFR3 (human), P22607 [G697C]
Chain of FGFR3 (human), P22607 [G697C] (P22607 whole entry G697C, looked up): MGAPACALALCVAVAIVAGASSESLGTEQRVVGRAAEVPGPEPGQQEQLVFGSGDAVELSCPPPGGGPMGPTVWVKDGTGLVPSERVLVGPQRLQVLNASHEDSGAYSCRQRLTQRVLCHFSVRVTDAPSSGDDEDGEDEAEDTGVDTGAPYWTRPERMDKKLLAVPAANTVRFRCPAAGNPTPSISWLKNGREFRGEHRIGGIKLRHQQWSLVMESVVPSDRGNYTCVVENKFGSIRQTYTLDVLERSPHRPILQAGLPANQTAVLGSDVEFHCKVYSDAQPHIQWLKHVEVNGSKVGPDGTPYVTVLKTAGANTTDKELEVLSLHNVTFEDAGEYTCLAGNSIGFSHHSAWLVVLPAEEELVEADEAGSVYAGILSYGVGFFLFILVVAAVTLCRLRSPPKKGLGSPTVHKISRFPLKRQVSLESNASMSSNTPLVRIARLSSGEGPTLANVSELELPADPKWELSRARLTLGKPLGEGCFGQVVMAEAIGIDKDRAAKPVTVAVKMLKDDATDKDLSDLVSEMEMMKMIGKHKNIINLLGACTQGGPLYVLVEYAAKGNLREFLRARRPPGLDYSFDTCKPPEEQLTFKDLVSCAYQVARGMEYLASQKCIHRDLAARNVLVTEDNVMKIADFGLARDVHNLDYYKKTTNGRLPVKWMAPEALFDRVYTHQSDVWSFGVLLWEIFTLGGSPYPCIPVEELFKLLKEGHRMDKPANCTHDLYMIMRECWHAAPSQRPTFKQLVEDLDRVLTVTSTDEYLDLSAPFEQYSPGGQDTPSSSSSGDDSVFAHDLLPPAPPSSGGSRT

[2] = test system: FLT3 (human), P36888 [D835Y]
GRK1 (human) = GRK1 (human) (UniProt Q15835)
GRK4 (human) = GRK4 (human) (UniProt P32298)
[3] = test system: KIT (human), P10721 [D816V]
LATS1 (human) = LATS1 (human) (UniProt O95835)
Chain of LATS1 (human) (O95835 whole entry, looked up): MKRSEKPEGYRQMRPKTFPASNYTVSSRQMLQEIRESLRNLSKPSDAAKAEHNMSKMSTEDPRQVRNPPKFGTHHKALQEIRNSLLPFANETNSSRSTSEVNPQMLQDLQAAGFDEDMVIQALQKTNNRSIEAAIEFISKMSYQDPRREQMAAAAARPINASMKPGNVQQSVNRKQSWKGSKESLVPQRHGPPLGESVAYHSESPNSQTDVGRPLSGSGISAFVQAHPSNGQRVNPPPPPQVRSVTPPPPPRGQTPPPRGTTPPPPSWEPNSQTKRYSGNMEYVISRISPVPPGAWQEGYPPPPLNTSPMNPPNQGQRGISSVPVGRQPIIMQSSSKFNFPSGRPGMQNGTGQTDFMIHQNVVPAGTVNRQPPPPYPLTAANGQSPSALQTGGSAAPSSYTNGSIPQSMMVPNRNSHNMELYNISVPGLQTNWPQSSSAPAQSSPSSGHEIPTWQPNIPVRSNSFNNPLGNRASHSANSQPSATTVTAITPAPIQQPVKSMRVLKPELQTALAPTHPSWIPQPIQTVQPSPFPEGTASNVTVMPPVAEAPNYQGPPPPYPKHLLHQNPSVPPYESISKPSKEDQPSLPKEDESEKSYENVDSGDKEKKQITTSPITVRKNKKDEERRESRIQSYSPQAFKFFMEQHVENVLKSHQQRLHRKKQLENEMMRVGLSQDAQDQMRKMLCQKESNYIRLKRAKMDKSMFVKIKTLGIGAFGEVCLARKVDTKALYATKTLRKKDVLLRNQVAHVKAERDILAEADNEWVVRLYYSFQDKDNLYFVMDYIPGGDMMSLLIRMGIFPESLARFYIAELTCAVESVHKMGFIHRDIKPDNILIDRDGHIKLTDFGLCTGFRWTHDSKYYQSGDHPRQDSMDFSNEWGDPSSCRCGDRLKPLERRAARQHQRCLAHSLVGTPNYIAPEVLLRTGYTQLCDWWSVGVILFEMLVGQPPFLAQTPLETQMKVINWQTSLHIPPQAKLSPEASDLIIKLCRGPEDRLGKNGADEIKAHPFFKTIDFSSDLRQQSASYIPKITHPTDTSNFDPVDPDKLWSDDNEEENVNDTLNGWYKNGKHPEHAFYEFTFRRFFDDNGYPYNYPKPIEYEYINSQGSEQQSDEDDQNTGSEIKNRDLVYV

MAP2K4 (human) = MAP2K4 (human) (UniProt P45985)
MAP3K3 (human) = MAP3K3 (human) (UniProt Q99759)
MAP3K5 (human) = MAP3K5 (human) (UniProt Q99683)
MAPK11 (human) = MAPK11 (human) (UniProt Q15759)
MAPK3 (human) = MAPK3 (human) (UniProt P27361)
MAPK9 (human) = MAPK9 (human) (UniProt P45984)
Chain of MAPK9 (human) (P45984 whole entry, looked up): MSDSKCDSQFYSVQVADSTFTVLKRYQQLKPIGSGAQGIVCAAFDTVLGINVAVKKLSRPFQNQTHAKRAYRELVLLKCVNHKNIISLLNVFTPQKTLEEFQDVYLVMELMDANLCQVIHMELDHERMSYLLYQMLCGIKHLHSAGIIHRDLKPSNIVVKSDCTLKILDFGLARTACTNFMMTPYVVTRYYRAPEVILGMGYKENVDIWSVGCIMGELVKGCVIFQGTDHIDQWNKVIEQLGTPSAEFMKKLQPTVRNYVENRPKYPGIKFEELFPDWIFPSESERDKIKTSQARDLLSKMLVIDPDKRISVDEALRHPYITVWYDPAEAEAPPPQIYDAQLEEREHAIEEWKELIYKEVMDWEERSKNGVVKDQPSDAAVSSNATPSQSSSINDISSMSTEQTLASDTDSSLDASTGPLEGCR

MERTK (human) = MERTK (human) (UniProt Q12866)
[4] = test system: MET (human), P08581 [Y1235D]
NTRK2 (human) = NTRK2 (human) (UniProt Q16620)
OXSR1 (human) = OXSR1 (human) (UniProt O95747)
PAK4 (human) = PAK4 (human) (UniProt O96013)
Chain of PAK4 (human) (O96013 whole entry, looked up): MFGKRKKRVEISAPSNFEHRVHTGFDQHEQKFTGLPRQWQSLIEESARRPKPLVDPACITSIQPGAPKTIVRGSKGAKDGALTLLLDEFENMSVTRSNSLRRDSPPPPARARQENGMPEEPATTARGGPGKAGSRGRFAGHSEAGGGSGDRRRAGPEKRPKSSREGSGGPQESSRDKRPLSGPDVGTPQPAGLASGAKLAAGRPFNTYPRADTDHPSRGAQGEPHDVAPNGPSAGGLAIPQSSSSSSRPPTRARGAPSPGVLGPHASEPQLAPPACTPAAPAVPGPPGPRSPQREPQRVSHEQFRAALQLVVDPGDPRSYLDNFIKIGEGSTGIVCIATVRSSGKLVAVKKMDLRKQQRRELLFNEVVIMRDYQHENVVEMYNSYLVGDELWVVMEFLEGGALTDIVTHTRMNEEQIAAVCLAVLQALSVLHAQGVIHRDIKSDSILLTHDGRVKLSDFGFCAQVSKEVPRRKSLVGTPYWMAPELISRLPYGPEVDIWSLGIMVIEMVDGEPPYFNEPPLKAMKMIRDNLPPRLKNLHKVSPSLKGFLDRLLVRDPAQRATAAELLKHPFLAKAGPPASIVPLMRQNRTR

PIP4K2B (human) = PIP4K2B (human) (UniProt P78356)
Chain of PIP4K2B (human) (P78356 whole entry, looked up): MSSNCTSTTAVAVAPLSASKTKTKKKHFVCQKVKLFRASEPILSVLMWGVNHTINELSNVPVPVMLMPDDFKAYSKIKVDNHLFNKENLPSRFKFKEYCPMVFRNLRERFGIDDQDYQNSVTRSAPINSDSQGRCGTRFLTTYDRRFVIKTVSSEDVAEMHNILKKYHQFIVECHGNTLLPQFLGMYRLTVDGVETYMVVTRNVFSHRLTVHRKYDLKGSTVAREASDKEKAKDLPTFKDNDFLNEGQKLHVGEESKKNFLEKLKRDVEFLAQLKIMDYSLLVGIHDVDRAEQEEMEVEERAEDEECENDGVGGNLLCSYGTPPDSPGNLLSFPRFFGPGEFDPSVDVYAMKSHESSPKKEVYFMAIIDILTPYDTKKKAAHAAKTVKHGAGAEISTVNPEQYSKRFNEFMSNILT

PTK2 (human) = PTK2 (human) (UniProt Q05397)
ROCK1 (human) = ROCK1 (human) (UniProt Q13464)
RPS6KA5 KD2 (human) = RPS6KA5 KD2 (human) (UniProt O75582)
RPS6KA6 KD2 (human) = RPS6KA6 KD2 (human) (UniProt Q9UK32)
SIK3 (human) = SIK3 (human) (UniProt Q9Y2K2)
STK39 (human) = STK39 (human) (UniProt Q9UEW8)
TLK1 (human) = TLK1 (human) (UniProt Q9UKI8)
TLK2 (human) = TLK2 (human) (UniProt Q86UE8)
[5] = biological target: TYK2 JH1 catalytic (human) (UniProt P29597)
WEE2 (human) = WEE2 (human) (UniProt P0C1S8)

Chain of AURKA (human) (O14965 whole entry, looked up): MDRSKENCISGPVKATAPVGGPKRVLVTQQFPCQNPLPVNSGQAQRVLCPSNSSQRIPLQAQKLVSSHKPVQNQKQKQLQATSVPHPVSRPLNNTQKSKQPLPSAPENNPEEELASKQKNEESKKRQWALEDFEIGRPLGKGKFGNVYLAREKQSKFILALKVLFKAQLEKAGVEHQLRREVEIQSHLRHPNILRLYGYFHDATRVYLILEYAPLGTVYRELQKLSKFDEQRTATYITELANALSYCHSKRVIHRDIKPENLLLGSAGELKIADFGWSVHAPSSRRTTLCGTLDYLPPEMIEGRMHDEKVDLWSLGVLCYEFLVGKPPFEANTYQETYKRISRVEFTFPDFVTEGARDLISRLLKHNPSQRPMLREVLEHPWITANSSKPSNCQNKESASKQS

SMILES: Cc1cnc(-c2cnc(NCCNc3ccc(C#N)cn3)nc2-c2ccc(Cl)cc2Cl)[nH]1
- kinase still bound, per cent of control (ACVR2A (human)): 100%
- kinase still bound, per cent of control (AURKA (human)): 100%
- kinase still bound, per cent of control (AURKC (human)): 92%
- kinase still bound, per cent of control (BRSK1 (human)): 100%
- kinase still bound, per cent of control (CDK8 (human)): 100%
- kinase still bound, per cent of control (CDKL3 (human)): 52%
- kinase still bound, per cent of control (CDKL5 (human)): 100%
- kinase still bound, per cent of control (CaMK1 (human)): 100%
- kinase still bound, per cent of control (DAPK3 (human)): 83%
- kinase still bound, per cent of control (DCLK1 (human)): 100%
- kinase still bound, per cent of control (EIF2AK2 (human)): 50%
- kinase still bound, per cent of control (EPHA4 (human)): 100%
- kinase still bound, per cent of control (EPHA5 (human)): 100%
- kinase still bound, per cent of control [1]: 100%
- kinase still bound, per cent of control [2]: 46%
- kinase still bound, per cent of control (GRK1 (human)): 96%
- kinase still bound, per cent of control (GRK4 (human)): 100%
- kinase still bound, per cent of control [3]: 100%
- kinase still bound, per cent of control (LATS1 (human)): 100%
- kinase still bound, per cent of control (MAP2K4 (human)): 70%
- kinase still bound, per cent of control (MAP3K3 (human)): 100%
- kinase still bound, per cent of control (MAP3K5 (human)): 100%
- kinase still bound, per cent of control (MAPK11 (human)): 100%
- kinase still bound, per cent of control (MAPK3 (human)): 100%
- kinase still bound, per cent of control (MAPK9 (human)): 87%
- kinase still bound, per cent of control (MERTK (human)): 100%
- kinase still bound, per cent of control [4]: 100%
- kinase still bound, per cent of control (NTRK2 (human)): 100%
- kinase still bound, per cent of control (OXSR1 (human)): 70%
- kinase still bound, per cent of control (PAK4 (human)): 100%
- kinase still bound, per cent of control (PIP4K2B (human)): 98%
- kinase still bound, per cent of control (PTK2 (human)): 96%
- kinase still bound, per cent of control (ROCK1 (human)): 85%
- kinase still bound, per cent of control (RPS6KA5 KD2 (human)): 100%
- kinase still bound, per cent of control (RPS6KA6 KD2 (human)): 83%
- kinase still bound, per cent of control (SIK3 (human)): 84%
- kinase still bound, per cent of control (STK39 (human)): 67%
- kinase still bound, per cent of control (TLK1 (human)): 75%
- kinase still bound, per cent of control (TLK2 (human)): 80%
- kinase still bound, per cent of control [5]: 99%
- kinase still bound, per cent of control (WEE2 (human)): 100%

SMILES: Cn1cc(C2=C(c3ccc(Cl)cc3Cl)C(=O)NC2=O)c2ccccc21
- kinase still bound, per cent of control (ACVR2A (human)): 79%
- kinase still bound, per cent of control (AURKA (human)): 100%
- kinase still bound, per cent of control (AURKC (human)): 96%
- kinase still bound, per cent of control (BRSK1 (human)): 90%
- kinase still bound, per cent of control (CDK8 (human)): 100%
- kinase still bound, per cent of control (CDKL3 (human)): 100%
- kinase still bound, per cent of control (CDKL5 (human)): 100%
- kinase still bound, per cent of control (CaMK1 (human)): 98%
- kinase still bound, per cent of control (DAPK3 (human)): 69%
- kinase still bound, per cent of control (DCLK1 (human)): 100%
- kinase still bound, per cent of control (EIF2AK2 (human)): 81%
- kinase still bound, per cent of control (EPHA4 (human)): 100%
- kinase still bound, per cent of control (EPHA5 (human)): 99%
- kinase still bound, per cent of control [1]: 100%
- kinase still bound, per cent of control [2]: 16%
- kinase still bound, per cent of control (GRK1 (human)): 83%
- kinase still bound, per cent of control (GRK4 (human)): 100%
- kinase still bound, per cent of control [3]: 89%
- kinase still bound, per cent of control (LATS1 (human)): 100%
- kinase still bound, per cent of control (MAP2K4 (human)): 82%
- kinase still bound, per cent of control (MAP3K3 (human)): 88%
- kinase still bound, per cent of control (MAP3K5 (human)): 100%
- kinase still bound, per cent of control (MAPK11 (human)): 98%
- kinase still bound, per cent of control (MAPK3 (human)): 99%
- kinase still bound, per cent of control (MAPK9 (human)): 59%
- kinase still bound, per cent of control (MERTK (human)): 100%
- kinase still bound, per cent of control [4]: 85%
- kinase still bound, per cent of control (NTRK2 (human)): 70%
- kinase still bound, per cent of control (OXSR1 (human)): 100%
- kinase still bound, per cent of control (PAK4 (human)): 82%
- kinase still bound, per cent of control (PIP4K2B (human)): 86%
- kinase still bound, per cent of control (PTK2 (human)): 84%
- kinase still bound, per cent of control (ROCK1 (human)): 68%
- kinase still bound, per cent of control (RPS6KA5 KD2 (human)): 100%
- kinase still bound, per cent of control (RPS6KA6 KD2 (human)): 55%
- kinase still bound, per cent of control (SIK3 (human)): 86%
- kinase still bound, per cent of control (STK39 (human)): 100%
- kinase still bound, per cent of control (TLK1 (human)): 36%
- kinase still bound, per cent of control (TLK2 (human)): 62%
- kinase still bound, per cent of control [5]: 100%
- kinase still bound, per cent of control (WEE2 (human)): 100%
